Data as given in US20110039793A1, “Application of ginsenoside Rb1 in preparing medicaments for treating dilated cardiomyopathy” (priority 2008, published 2011).

Columns and labels:
[1] = test system: cTnT^R141W transgenic dilated cardiomyopathy mice model; experiment: Survival analysis of cTnT^R141W transgenic mice after long-term administration; type: in vivo; conditions: 75 mg/kg in drinking water for seven months
Description: The positive mice at 1.5 months old are distributed by weight and cardiac function uniformly into the model group and the ginsenoside Rb1 administration group according to the echocardiography result, and each group comprises twelve mice. Ginsenoside Rb1, 75 mg/kg (State Yao zhun Zi, Yun Nan Tean Na Pharmaceutical Co., Ltd) is put into animal drinking water, and continuously administered for seven months.
Individual death occurs in the feeding process of the cTnT^R141W transgenic mice model. From the beginning of administration to the observation endpoint, the death of animal of each group is recorded. The death of animal of the negative control group is zero, and the model group is four, and the ginsenoside Rb1 group is two.

[2] = test system: cTnT^R141W transgenic dilated cardiomyopathy mice model; experiment: Cardiac microstructure, HE and Masson staining, light microscope; type: in vivo; conditions: long-term administration, vs model group
Description: Effects on the cardiac microstructure of the mice model after a long-term administration of ginsenoside Rb1 (HE and Masson staining)
1) Fix the heart and treated in a standard pathological procedure.
3) Composite staining solution for 5 min;
4) Slightly washed by 0.2% acetic acid solution;
5) 5% phosphotungstic acid for 5-10 min;
6) Immersion cleaning twice by 0.2% acetic acid solution;
7) Brilliant green staining solution for 5 min, immersion cleaning twice by 0.2% acetic acid solution;
8) Ethanol dehydration, xylene transparent and sealed with neutral gum;
9) Observed under light microscope, collagen fibers show green, muscle fibers show red and red blood cells show nacarat.

SMILES: CC(C)=CCC[C@](C)(O[C@@H]1O[C@H](CO[C@@H]2O[C@H](CO)[C@@H](O)[C@H](O)[C@H]2O)[C@@H](O)[C@H](O)[C@H]1O)[C@H]1CC[C@]2(C)[C@@H]1[C@H](O)C[C@@H]1[C@@]3(C)CC[C@H](O[C@@H]4O[C@H](CO)[C@@H](O)[C@H](O)[C@H]4O[C@@H]4O[C@H](CO)[C@@H](O)[C@H](O)[C@H]4O)C(C)(C)[C@@H]3CC[C@]12C [Rb1, ginsenoside Rb1]
- mortality rate (survival analysis, FIG. 2) ([1]; vs model group): reduce the mortality rate
- death of animal of the group (number) ([1]; group of twelve mice, model group four, negative control zero): two
- proliferation of interstitial collagen ([2]; Masson staining): significantly decreased
- hypertrophy and disordered arrangement of the myocytes ([2]; light microscope): improved
